Results published in ChEMBL document CHEMBL1201862, “PubChem BioAssay data set” (2004).
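Values below derive from 48-hour exposures of cells grown in 96-well plates, with endpoints linearly interpolated between the two concentrations bracketing the appropriate inhibition level. Abbreviation: GI50, concentration required for 50% inhibition of growth.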 Calls of active or inactive are those of the source. Rule as the data show it: active = GI50 up to about 1.1 µM and inactive = higher.

Experiments:
Experiment in all cases: inhibition of tumour cell growth, NCI panel, 48 h
NCI-H522 = tested on: NCI-H522
SK-MEL-2 = tested on: SK-MEL-2
XF498 = tested on: XF498
SK-MEL-5 = tested on: SK-MEL-5
IGROV-1 = tested on: IGROV-1
SF-539 = tested on: SF-539
RXF 393 = tested on: RXF 393
TK-10 = tested on: TK-10
LXFL 529 = tested on: LXFL 529
UACC-62 = tested on: UACC-62
K562 = tested on: K562
OVCAR-5 = tested on: OVCAR-5
MOLT-4 = tested on: MOLT-4
U-251 = tested on: U-251
NCI-H226 = tested on: NCI-H226
NCI-H460 = tested on: NCI-H460
HCT-116 = tested on: HCT-116
SNB-78 = tested on: SNB-78
KM12 = tested on: KM12
HT-29 = tested on: HT-29
SF-268 = tested on: SF-268
OVCAR-4 = tested on: OVCAR-4
SK-MEL-28 = tested on: SK-MEL-28
UACC-257 = tested on: UACC-257
HOP-92 = tested on: HOP-92
DLD-1 = tested on: DLD-1
HOP-62 = tested on: HOP-62
CCRF-CEM = tested on: CCRF-CEM
OVCAR-8 = tested on: OVCAR-8
EKVX = tested on: EKVX
NCI-H23 = tested on: NCI-H23
A498 = tested on: A498
SF-295 = tested on: SF-295
SNB-19 = tested on: SNB-19
M14 = tested on: M14
RPMI-8226 = tested on: RPMI-8226
HCC 2998 = tested on: HCC 2998
DMS-273 = tested on: DMS-273
HL-60 = tested on: HL-60
ACHN = tested on: ACHN
HCT-15 = tested on: HCT-15
UO-31 = tested on: UO-31
LOX IMVI = tested on: LOX IMVI
SNB-75 = tested on: SNB-75
786-0 = tested on: 786-0
M19-MEL = tested on: M19-MEL
OVCAR-3 = tested on: OVCAR-3
Malme-3M = tested on: Malme-3M
DMS-114 = tested on: DMS-114
A549 = tested on: A549
SW-620 = tested on: SW-620
SR = tested on: SR
KM-20L2 = tested on: KM-20L2
SN12C = tested on: SN12C
SK-OV-3 = tested on: SK-OV-3
CAKI-1 = tested on: CAKI-1
HOP-18 = tested on: HOP-18
COLO 205 = tested on: COLO 205
NCI/ADR-RES = tested on: NCI/ADR-RES
MCF7 = tested on: MCF7

Measured: GI50

CC1=C(C(=O)NCc2ccccc2)C(c2ccc(Cl)c(Cl)c2)C(C(=O)NCc2ccccc2)=C(C)N1
> 100 µM: HCT-15
inactive: NCI-H522 > 100 µM | SK-MEL-2 > 100 µM | XF498 > 100 µM | SK-MEL-5 > 100 µM | IGROV-1 > 100 µM | SF-539 > 100 µM | RXF 393 > 100 µM | TK-10 > 100 µM | LXFL 529 > 100 µM | UACC-62 > 100 µM | K562 > 100 µM | OVCAR-5 > 100 µM | MOLT-4 > 100 µM | U-251 > 100 µM | NCI-H226 > 100 µM | NCI-H460 > 100 µM | HCT-116 > 100 µM | SNB-78 > 100 µM | KM12 > 100 µM | HT-29 > 100 µM | SF-268 > 100 µM | OVCAR-4 > 100 µM | SK-MEL-28 > 100 µM | UACC-257 > 100 µM | HOP-92 > 100 µM | DLD-1 > 100 µM | HOP-62 > 100 µM | CCRF-CEM > 100 µM | OVCAR-8 > 100 µM | EKVX > 100 µM | NCI-H23 > 100 µM | A498 > 100 µM | SF-295 > 100 µM | SNB-19 > 100 µM | M14 > 100 µM | RPMI-8226 > 100 µM | HCC 2998 > 100 µM | DMS-273 > 100 µM | HL-60 > 100 µM | ACHN > 100 µM | UO-31 > 100 µM | LOX IMVI > 100 µM | SNB-75 > 100 µM | 786-0 > 100 µM | M19-MEL > 100 µM | OVCAR-3 > 100 µM | Malme-3M > 100 µM | DMS-114 > 100 µM | A549 > 100 µM | SW-620 > 100 µM | SR > 100 µM | KM-20L2 > 100 µM | SN12C > 100 µM

O=C(O)CCCCCCC[C@H]1S[C@H]1CCCCCCO
> 100 µM: HCT-15
inactive: SK-OV-3 > 100 µM | CAKI-1 > 100 µM | SK-MEL-2 > 100 µM | XF498 > 100 µM | SK-MEL-5 > 100 µM | IGROV-1 > 100 µM | SF-539 > 100 µM | RXF 393 > 100 µM | TK-10 > 100 µM | UACC-62 > 100 µM | K562 > 100 µM | OVCAR-5 > 100 µM | MOLT-4 > 100 µM | HOP-18 > 100 µM | U-251 > 100 µM | COLO 205 > 100 µM | HCT-116 > 100 µM | SNB-78 > 100 µM | KM12 > 100 µM | HT-29 > 100 µM | SF-268 > 100 µM | OVCAR-4 > 100 µM | SK-MEL-28 > 100 µM | DLD-1 > 100 µM | HOP-62 > 100 µM | OVCAR-8 > 100 µM | EKVX > 100 µM | NCI-H23 > 100 µM | SF-295 > 100 µM | SNB-19 > 100 µM | M14 > 100 µM | RPMI-8226 > 100 µM | HCC 2998 > 100 µM | HL-60 > 100 µM | UO-31 > 100 µM | 786-0 > 100 µM | M19-MEL > 100 µM | OVCAR-3 > 100 µM | Malme-3M > 100 µM | DMS-114 > 100 µM | SR > 100 µM
active: HOP-92 < 0.01 µM

O=C(CC1=NCCN1)c1ccccc1
> 750 µM: HCT-15
inactive: NCI-H522 > 750 µM | SK-OV-3 > 750 µM | CAKI-1 > 750 µM | SK-MEL-2 > 750 µM | XF498 > 750 µM | NCI/ADR-RES > 750 µM | SK-MEL-5 > 750 µM | IGROV-1 > 750 µM | SF-539 > 750 µM | RXF 393 > 750 µM | UACC-62 > 750 µM | K562 > 750 µM | OVCAR-5 > 750 µM | MOLT-4 > 750 µM | HOP-18 > 649 µM | U-251 > 750 µM | NCI-H226 > 536 µM | NCI-H460 > 511 µM | COLO 205 > 750 µM | HCT-116 > 750 µM | SNB-78 > 750 µM | KM12 > 750 µM | HT-29 > 750 µM | SF-268 > 750 µM | OVCAR-4 > 750 µM | MCF7 > 750 µM | SK-MEL-28 > 750 µM | UACC-257 > 750 µM | HOP-92 > 319 µM | DLD-1 > 750 µM | HOP-62 > 605 µM | CCRF-CEM > 511 µM | OVCAR-8 > 750 µM | EKVX > 750 µM | NCI-H23 > 750 µM | A498 62.8 µM | SF-295 > 750 µM | SNB-19 > 750 µM | RPMI-8226 > 750 µM | HCC 2998 > 750 µM | DMS-273 > 750 µM | HL-60 455 µM | UO-31 721 µM | LOX IMVI > 750 µM | SNB-75 > 735 µM | M19-MEL > 750 µM | OVCAR-3 > 750 µM | Malme-3M > 617 µM | DMS-114 > 750 µM | A549 > 213 µM | SW-620 > 750 µM | KM-20L2 > 750 µM | SN12C > 750 µM
